The values that follow come from patent US7446122B2, “Substituted indole derivatives” (Cephalon, Inc., priority 2003, dated 2008).

pIC50: −log10 of the molar value.

In data set [1] the test system is prostate cancer cell line (LNCaP). Put plainly: Cell cytotoxicity, MTT assay, LNCaP. To be noted: Homo sapiens, 72 h, three days incubation. It counts as cell-based. As for the experimental part: (§1) Normal prostate cells (PREC, Cambrex East Rutherford N.J.), prostate cancer cell line (LNCaP, ATCC), PBL (peripheral blood leukocytes-buffy coat San Diego Blood Bank), and primary CLL cells were incubated for one to two days in RPMI-1640 and 10% FBS (fetal bovine serum). They were plated in 96-well plates at 100,000 cells/well. Titrated concentrations of the compound to be tested were added to the culture medium. The cells were incubated three days at 37° C., 5% CO2. Viability of the cells was assayed by standard MTT assay. Each drug concentration was done in duplicate. MTT assay: 10 μl of 12 mM 3,[4,5-dimethylthiazol-2-yl]-2,5-diphenyltetrazolium bromide (MTT) (SIGMA) was added to each well. The cells were incubated at 37° C., 5% CO2 for 4 hours. 100 μl of 20% SDS, 0.015M HCl was added to each well and the cells were incubated overnight. The plates were read at absorbance 595 nm.
On the technique in general: Formazan colour is commonly taken as a measure of viable cells.

Data set [2] concerns primary CLL cells. Nature of the data set: Cell cytotoxicity, MTT assay, primary CLL cells. It counts as cell-based. Particulars: 72 h, three days incubation. Here is the method: as §1
Data set [3] has as its system Cyclin D1 protein in LNCaP cells. Nature of the data set: Western blot of Cyclin D1 protein in LNCaP cell lysates. It counts as cell-based. Particulars: LNCaP cell lysates from treated cells. On the technique in general: In western blotting, separated proteins are transferred to a membrane and probed.
In data set [4] the test system is PBL (peripheral blood leukocytes). Nature of the data set: Cell cytotoxicity, MTT assay, PBL. The format is cell-based. Particulars: Leukocyte, 72 h, three days incubation. Here is the method:
as §1

The subject of data set [5] is Normal prostate cells (PREC). Nature of the data set: Cell cytotoxicity, MTT assay, PREC. It counts as cell-based. To be noted: Homo sapiens, 72 h, three days incubation. As for the experimental part:
as §1

The test system of data set [6] is Daudi human Burkitt Lymphoma derived tumors. Nature of the data set: Daudi lymphoma murine xenograft model, efficacy. The format is in vivo, male SCID mice. As for the experimental part: Male SCID mice, 6-8 weeks of age, obtained from Simonsen Laboratories, Inc. (Gilroy, Calif.) were housed in groups of five.
The Daudi human Burkitt Lymphoma cells were obtained from American Type Culture Collection and were inoculated subcutaneously (1.0×10^7 cells/mouse) on the flanks of SCID mice. After the tumors reached approximately 100 mm^3 treatment was initiated.
Body weights and tumor volume of all mice were measured and recorded twice weekly. Tumors were measured in three dimensions and volume calculated using the formula: […]. Time for the tumors (days) to grow to 4× and 8× the initial volume at dosing were assessed. Study compounds were administered at 125 or 250 mg/kg/day (M-F) via oral gavage until the end of the study.
The efficacy of chlorambucil (2 and 3 mg/kg/d), (R-etodoalc) (400 mg/kg/d) and compound 47 (250 mg/kg/d), compound 26 (250 mg/kg/d), and compound 1 (125 mg/kg/d) against Daudi derived tumors in male SCID mice were studied. R-etodolac and compounds 1, 26 and 47 were prepared in sesame oil. Both chlorambucil (ip, 0.1 ml) and compounds of the invention (per os [p.o.], 0.31 ml) were dosed daily (Monday to Friday) for two weeks. SDX-101 (0.31 ml) was dosed p.o. daily until the end of the study. […] However, all treated mice recovered after Day 2 and maintained their weights. There was no body weight loss observed in other treatment groups. At termination of the study, the control group mean tumor volume was 1583 mm^3. The mean tumor volume of chlorambucil treated groups were 864 and 766 mm^3 with 2 and 3 mg/kg/d chlorambucil treatment, respectively. The mean tumor volume of R-etodolac and compounds 1, […] and 47 were 802, 996, 1011, and 1157 mm^3 with compounds 47, 36, 1 and R-etodolac treatment, respectively. […] At termination of the study, tumor samples along with liver, kidney, and spleen samples from each group were collected and fixed in 10% buffered formalin for histopathology.

Data set [7] addresses T1, Cyclooxygenase-2 (human recombinant, expressed in Sf9 cell) (Homo sapiens, UniProt P35354).
T1 construct: purchased Cayman 60122; host or cells: Sf9 cell
T1 sequence (P35354 18-604): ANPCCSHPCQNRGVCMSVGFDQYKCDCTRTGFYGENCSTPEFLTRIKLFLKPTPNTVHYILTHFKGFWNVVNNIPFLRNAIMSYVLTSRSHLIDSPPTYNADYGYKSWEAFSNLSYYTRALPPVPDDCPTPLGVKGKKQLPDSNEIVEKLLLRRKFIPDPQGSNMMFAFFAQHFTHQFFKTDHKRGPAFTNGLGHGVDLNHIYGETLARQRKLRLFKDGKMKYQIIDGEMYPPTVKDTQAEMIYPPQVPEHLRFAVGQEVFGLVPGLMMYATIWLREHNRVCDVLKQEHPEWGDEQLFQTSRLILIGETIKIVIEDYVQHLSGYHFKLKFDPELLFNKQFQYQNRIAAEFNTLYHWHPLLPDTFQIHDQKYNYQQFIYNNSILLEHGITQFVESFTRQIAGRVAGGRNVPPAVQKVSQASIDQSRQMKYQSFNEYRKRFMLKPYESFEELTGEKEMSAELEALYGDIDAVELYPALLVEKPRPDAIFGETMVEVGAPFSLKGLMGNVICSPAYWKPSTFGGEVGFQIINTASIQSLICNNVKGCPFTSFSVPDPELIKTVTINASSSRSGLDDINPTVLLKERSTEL
Put plainly: Cox-2 assay: human recombinant cyclooxygenase-2, PGE2 by EIA. To be noted: human recombinant enzyme. The format is biochemical. As for the experimental part:
Test compound and/or vehicle is pre-incubated with 0.11 U cyclooxygenase-2, 1 mM reduced glutathione (GSH), 500 μM phenol and 1 μM hematin for 15 minutes at 37° C. The reaction is initiated by addition of 0.3 μM arachidonic acid as substrate in Tris-HCl pH 7.7 and terminated after a 5 minute incubation at 37° C. by addition of 1N HCl. Following centrifugation, substrate conversion to PGE2 is measured by an Amersham EIA kit. Compounds are screened at 10 μM. […] J. Physiol.

For data set [8], the target named is T2, COX-1 (Homo sapiens, UniProt P23219).
T2 construct: endogenous in cells; host or cells: human platelets
Nature of the data set: Cox-1 assay: PGE2 formation in human platelets. The format is cell-based. Here is the method:
Test compound and/or vehicle is incubated with human platelets (10^8/ml) containing the phospholipase inhibitor MLnFP (100 μM) for 15 minutes at 37° C. Arachidonic acid (100 μM) is then added for a further 15 minute incubation period. The reaction is stopped by addition of 1 N HCl and neutralized with 1N NaOH. PGE2 levels in the supernatant are determined using the Amersham EIA kit. […]

Data set [9] relates to cyclin D1 transcripts in LNCaP cells. Put plainly: Cyclin D1 transcript expression by quantitative PCR in LNCaP cells. It counts as cell-based. Particulars: 24 hours, compound 42 (50 μM), compound 36 (100 μM), compound 1 (20 μM), normalized to 18s, FIG. 2. Here is the method:
Cyclin D1 Transcript Expression Levels as measured by quantitative PCR assay. LNCaP cells were cultured at 37° C., 5% CO2 for 24 hours untreated or in the presence of R-etodolac (200 μM), compound 42 (50 μM), compound 36 (100 μM), or compound 1 (20 μM) (see Table II for structures). Cells were harvested by trypsinization, washed with PBS, and stored at −80° C. Total cellular RNA was prepared from cell pellets using the RNEasy® Mini kit (Qiagen, Inc., Valencia, Calif.). RNA was quantified by spectrophotometer. Approximately 2 μg of RNA was used to prepare cDNA using the ThermoScript™ RT-PCR System (Invitrogen, Carlsbad, Calif.).
The levels of cyclin D1 transcripts in the cDNA samples were measured using a quantitative PCR (qPCR) assay specific for cyclin D1. The cyclin D1 transcript was amplified using the following primer pair:
The cyclin D1 primers are described in a manuscript from Takayasu et al. (2001 Clin. Cancer Res. 7:901-908). All assays were performed in duplicate. All qPCR assays were performed and analyzed using a Bio-Rad iCycler (Bio-Rad, Hercules, Calif.). The levels of cyclin D1 transcripts were normalized for total input cDNA by performing a separate assay to detect the levels of a housekeeping gene (18s) using the following primer pair:
The samples were normalized for 18s transcript levels using the method of Livak et al. (2001 Methods 25:402-408). The level of cyclin D1 transcripts in the control sample was set to 1. FIG. 2 represents the averaged normalized cyclin D1 transcripts±standard deviation for three independent experiments (two independent experiments for compound 1).

The mark [10] stands for this setting: compounds are screened at 10 μM.

T2 sequence (P23219 24-599): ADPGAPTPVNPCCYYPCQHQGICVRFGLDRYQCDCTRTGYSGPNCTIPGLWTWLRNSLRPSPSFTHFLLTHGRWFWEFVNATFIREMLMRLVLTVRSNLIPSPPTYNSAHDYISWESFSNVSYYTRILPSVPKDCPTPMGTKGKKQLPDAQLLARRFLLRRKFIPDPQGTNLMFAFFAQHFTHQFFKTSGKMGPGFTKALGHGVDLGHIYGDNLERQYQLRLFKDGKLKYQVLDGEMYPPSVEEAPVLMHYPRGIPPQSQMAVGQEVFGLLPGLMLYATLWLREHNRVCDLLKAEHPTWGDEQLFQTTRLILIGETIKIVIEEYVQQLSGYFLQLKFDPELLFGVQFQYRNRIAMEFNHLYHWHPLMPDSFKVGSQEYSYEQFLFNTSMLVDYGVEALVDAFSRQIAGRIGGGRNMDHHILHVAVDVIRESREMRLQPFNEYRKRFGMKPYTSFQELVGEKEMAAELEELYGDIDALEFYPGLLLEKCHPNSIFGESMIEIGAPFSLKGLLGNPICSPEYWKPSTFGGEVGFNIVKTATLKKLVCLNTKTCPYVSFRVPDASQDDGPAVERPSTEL

For `CCC1(CCO)OCCc2c1[nH]c1ccc(C)cc21` (centres unmarked) [Compound 24, 2-(1-ETHYL-6-METHYL-1,3,4,9-TETRAHYDRO-PYRANO[3,4-b]INDOL-1-YL)-ETHANOL], the melting point (as a rule, the temperature, or range, at which the solid turns liquid) lay within 114 to 115 °C. The negative logarithm of the IC50 (pIC50) (commonly −log10 of the IC50, conventionally taken in molar units) in [1] was 4.10.

`CCC1(CCO)OCCc2c1[nH]c1c(C)cccc21` (centres unmarked) [Compound 25, 2-(1-ETHYL-8-METHYL-1,3,4,9-TETRAHYDRO-PYRANO[3,4-b]INDOL-1-YL)-ETHANOL] showed a melting point of 68 °C. This compound showed a negative logarithm of the IC50 (pIC50) in data set [1] of 4.22.

For `CCC1(CCO)OCCc2c1[nH]c1c(C(C)C)cccc21` (centres unmarked) [Compound 36, 2-(1-ETHYL-8-ISOPROPYL-1,3,4,9-TETRAHYDRO-PYRANO[3,4-b]INDOL-1-YL)-ETHANOL], the negative logarithm of the IC50 (pIC50) in data set [2] is 4.30; in data set [4] it was 3.80; in data set [5], 3.80; in [1], 4.52. In addition, in data set [3], the “Cyclin D1 protein expression (Western blot)” value is on record as “reduced Cyclin D1 protein expression”. Besides, in [6] (p.o. in sesame oil, compound 47 250, compound 36 (printed 26) 250, compound 1 125, R-etodolac 400 mg/kg/d, control 1583 mm^3), the “mean tumor volume at termination of the study” value was found to be 996 mm^3. Further, the “4× Growth” value in data set [6] (time for the tumors to grow to 4× the initial volume at dosing, control 8.9 d) worked out at 13.5 days. Besides, the “8× Growth” value in data set [6] (time for the tumors to grow to 8× the initial volume at dosing, control 14.5 d) came out at 20.8 days. Moreover, the IC50 (as a rule, the point on the concentration scale where inhibition reaches its midpoint) was above 300 µM in [7] (0.3 μM arachidonic acid, PGE2) and above 300 µM in data set [8] (arachidonic acid 100 μM, PGE2). The results for the inhibition at 10 µM in data set [7] (setting [10]) and in data set [8] (setting [10]) were 18% and -4%, respectively. For the same compound, the “cyclin D1 mRNA expression” value in [9] is “inhibit cyclin D1 mRNA expression”.
